Data: patent publication US10653658B2, “Biofilm inhibiting compositions enhancing weight gain in livestock” (Akeso Biomedical, Inc., priority 2015, dated 2020)
Marks after values point to notes of the source that are not given here.

Legend:
[1] = Dose ranging study of FeTyr (TYPLEX) in feed, zootechnical performance of broilers, dirty litter challenge at day 20 (Example 10); type: in vivo, Ross 308 male broilers; details: for AFI / AWG / MFCR / AFI/bird/period / AWG/bird/period: 0.22 g Q-PLEX/kg feed
Protocol: (§1) A study was performed to evaluate growth promotion and reduction of Campylobacter carriage using FeTyr in Ross 308 male broilers with 7 treatment groups. Each treatment group comprised eight replicates of 10 birds per pen (80 birds/treatment group), with 2 control groups and […]. All the test groups and both of the control groups were exposed at day 20 of the trial to dirty litter, which tested positive for Campylobacter. This method was used to provide a more natural method to Campylobacter challenge the birds. Thus there were two positive controls where each treatment group was challenged with Campylobacter, and five treatment groups that were all challenged with Campylobacter. The total number of birds used in the 7 treatment groups was 560.
Treatment group 1 was a positive control where birds just received the commercial feed, and were challenged with dirty litter containing Campylobacter at day 20. Treatment group 2 received 0.01 g/kg of TYPLEX (FeTyr) in their feed, and were challenged with dirty litter containing Campylobacter at day 20. Treatment group 3 received 0.02 g/kg of TYPLEX (FeTyr) in their feed, and was challenged with dirty litter containing Campylobacter at day 20. Treatment group 4 received 0.05 g/kg of TYPLEX (FeTyr) in their feed, and was challenged with dirty litter containing Campylobacter at day 20. Treatment group 5 received 0.1 g/kg of TYPLEX (FeTyr) in their feed, and was challenged with dirty litter containing Campylobacter at day 20. Treatment group 6 received 0.2 g/kg of TYPLEX (FeTyr) in their feed, and was challenged with dirty litter containing Campylobacter at day 20. […] The birds were fed with a commercial three-phase feeding program using starter, grower and finisher feeds as described in Example 1. The birds were reared in floor pens to day 42, and fed starter, grower and finisher feed at day 0 to 11, 11 to 24, and 24 to 42 days, respectively. All birds were weighed individually and feed weigh backs recorded per pen at day 0, 11, 21, 24 and 42 days.
(§2) At day 20, litter, which was naturally Campylobacter-contaminated, was tested to confirm the presence of Campylobacter, and then added (approximately 2 kg/pen) to the litter in all pens. At day 42, caecal samples were taken and tested for Campylobacter, E. coli and Salmonella enumeration.
In order to minimize risk of cross-contamination, standard industry biosecurity measures were used including: disinfecting boots, changing overshoes and gloves between pens/treatments, entering Campylobacter negative pens before entering Campylobacter positive pens, and leaving adjacent pens empty. Daily health, culls, and mortality were recorded. All bird weights were recorded at 0, 11, 21, 24, 33 and 42 days. Weight gains, feed intake and feed conversion ratio (FCR) were derived for each feeding period.

Campylobacter = Campylobacter cfu/g of caeca at day 42 (Example 10); type: in vivo; details: in feed
Protocol: as §1, §2

[2] = test system: Campylobacter jejuni NCTC 11168; assay: Biofilm formation on plastic coated UV beads (Example 6); details: Fe-Tart and Fe-Cit at 50, 100, and 300 μM; FeQ (QPLEX) at 300

## O=C([O-])C1(O)CC(O)C(O)C(O)C1.O=C([O-])C1(O)CC(O)C(O)C(O)C1.O=C([O-])C1(O)CC(O)C(O)C(O)C1.[Fe+3] (stereo not drawn) [FeQ, Ferric Quinate]
[1]; 0-25 d of age
  AFI: 1.898 kg
  AWG: 1.422^c kg
  MFCR: 1.335^a feed:gain
[1]; 0-35 d of age
  AFI/bird/period: 3.815 kg
  AWG/bird/period: 0.668 kg
  MFCR: 1.458^a feed:gain
[1]; 0-42 d of age
  AFI/bird/period: 5.279 kg
  AWG/bird/period: 3.448^ab kg
  MFCR: 1.547^a feed:gain
[1]; 35 to 42 d of age
  AFI: 1.464 kg
  AWG: 0.790 kg
  MFCR: 1.864 feed:gain
[1]; T7 0.22 g Q-PLEX/kg feed
  ABW (average body weight/pen) 1 d: 0.040 kg
  ABW (average body weight/pen) 11 d: 0.350^b kg
  ABW (average body weight/pen) 20 d: 0.968 kg
  ABW (average body weight/pen) 25 d: 1.463^c kg
  ABW (average body weight/pen) 28 d: 1.836^b kg
  ABW (average body weight/pen) 30 d: 2.031^b kg
  ABW (average body weight/pen) 35 d: 2.698^ab kg
  ABW (average body weight/pen) 42 d: 3.488^ab kg
  AFI (mean feed intake/pen) 1 to 11 d: 0.357^b kg
  AFI (mean feed intake/pen) 11 to 20 d: 0.836^ab kg
  AFI (mean feed intake/pen) 11 to 25 d: 1.541 kg
  AFI (mean feed intake/pen) 20 to 35 d: 2.622 kg
  AFI (mean feed intake/pen) 25-42 d: 3.381 kg
  AFI/bird/period 20-25 d: 0.705 kg
  AFI/bird/period 25-35 d: 1.917 kg
  AWG (mean weight gain/pen) 1 to 11 d: 0.310^b kg
  AWG (mean weight gain/pen) 11 to 20 d: 0.618 kg
  AWG (mean weight gain/pen) 11 to 25 d: 1.113^b kg
  AWG (mean weight gain/pen) 20 to 35 d: 1.730^ab kg
  AWG (mean weight gain/pen) 25-42 d: 2.026^ab kg
  AWG/bird/period 20-25 d: 0.495 kg
  AWG/bird/period 25-35 d: 1.236^abc kg
  MFCR 1 to 11 d: 1.150^x feed:gain
  MFCR 11 to 20 d: 1.357^ab feed:gain
  MFCR 11 to 25 d: 1.387^a feed:gain
  MFCR 20-25 d: 1.430^a feed:gain
  MFCR 20 to 35 d: 1.554^a feed:gain
  MFCR 25-35 d: 1.607^ab feed:gain
  MFCR 25-42 d: 1.703^ab feed:gain
[1]; all treatment groups, in feed
  MFCR at day 42 compared to control group (FIG. 13): improved MFCR values
  average body weight at day 42 compared with control group (FIG. 12): higher average body weight
Campylobacter
  Campylobacter cfu/g of caeca at day 42 (FIG. 14): positive effect on reducing Campylobacter infection
[2]
  C. jejuni biofilm formation on plastic coated UV beads (FIG. 9): inhibited C. jejuni biofilm formation
